Measurements as given in US8354419B2, “Benzimidazole analogues for the treatment or prevention of flavivirus infections” (Vertex Pharmaceuticals Incorporated, priority 2009, dated 2013).
Where two headings read alike, the source gives them in different places.

Tested on: HCV (Ib) RNA replication
Assay: Cell-based luciferase reporter HCV (1b) RNA replication assay (replicon cell lines Huh-7 5.2 and ET)
Design: species or system Hepatitis C virus
Conditions: HCV 1b genotype replicon, luciferase readout, 4 days incubation, read-out: EC50_1b
How it was run: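 Huh-7-derived 5.2 or ET replicon cells carrying a firefly luciferase reporter were seeded at ~3000 cells/well in medium without G418 or phenol red. Compound was added after 3-4 h, followed by 4 days at 37 °C. Luciferase readout was used, with IC50 fitted by nonlinear regression from eleven concentrations in duplicate.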

| SMILES | EC50 (Hepatitis C virus, Huh-7, 96 h) [nM] | EC50 [nM] |
| --- | --- | --- |
| COC(=O)NC(C(=O)N1CCCC1c1nc2cc(-c3ccc(-c4ccc5[nH]c([C@@H]6CCCN6C(=O)C(NC(=O)OC)C(C)(C)F)nc5c4)cc3)ccc2[nH]1)C(C)(C)F (stereo partly drawn) [Compound 179] | ≤ 5 |  |
| COC(=O)NC(C(=O)N1CCC[C@H]1c1nc2cc(-c3ccc(-c4ccc5[nH]c([C@@H]6CCCN6C(=O)C(NC(=O)OC)C(C)(C)F)nc5c4)cc3)ccc2[nH]1)C(C)(C)F (stereo partly drawn) [Compound 180] | ≤ 5 |  |
| COC(=O)N[C@H](C(=O)N1CCC[C@H]1c1nc2cc(-c3ccc(-c4ccc5nc([C@@H]6CCCN6C(=O)[C@@H](NC(=O)OC)C(C)C)[nH]c5c4)cc3C(=O)OC)ccc2[nH]1)C(C)C [Compound 181] | ≤ 5 |  |
| COC(=O)N(C)[C@H](C(=O)N1CCC[C@H]1c1nc2cc(-c3ccc(-c4ccc5nc([C@@H]6CCCN6C(=O)[C@H](C(C)C)N(C)C(=O)OC)[nH]c5c4)c4c3OCO4)ccc2[nH]1)C(C)C [Compound 182] | ≤ 5 |  |
| COC(=O)N[C@H](C(=O)N1CCC[C@H]1c1nc2cc(-c3nnc(-c4ccc5[nH]c([C@@H]6CCCN6C(=O)[C@@H](NC(=O)OC)C(C)C)nc5c4)s3)ccc2[nH]1)C(C)C [Compound 184] | ≤ 5 |  |
| COC(=O)N[C@H](C(=O)N1CCC[C@H]1c1nc2cc(-c3ccc(-c4ccc5nc([C@@H]6CCCN6C(=O)[C@@H](NC(=O)OC)[C@@H](C)OC)[nH]c5c4)c4c3OCO4)ccc2[nH]1)[C@@H](C)OC [Compound 185] | ≤ 5 |  |
| COC(=O)N[C@H](C(=O)N1C[C@@H](C)C[C@H]1c1nc2cc(-c3ccc(-c4ccc5[nH]c([C@@H]6C[C@H](C)CN6C(=O)[C@@H](NC(=O)OC)C(C)C)nc5c4)cc3)ccc2[nH]1)C(C)C [Compound 186] | ≤ 5 |  |
| COC(=O)N[C@H](C(=O)N1CCC[C@H]1c1nc2cc(-c3ccc(-c4ccc5[nH]c([C@@H]6CC(F)(F)CN6C(=O)[C@@H](NC(=O)OC)C(C)C)nc5c4)cc3)ccc2[nH]1)C(C)C [Compound 187] | ≤ 5 |  |
| COC(=O)N[C@H](C(=O)N1CCC[C@H]1c1nc2cc(-c3ccc(-c4ccc5nc([C@@H]6CCCN6C(=O)[C@@H](NC(=O)OC)[C@@H](C)OC)[nH]c5c4)c4ncoc34)ccc2[nH]1)[C@@H](C)OC [Compound 188] | ≤ 5 |  |
| CC(C)[C@H](NC(=O)OC(C)(C)C)C(=O)N1CCC[C@H]1c1nc2ccc(-c3ccc(-c4ccc5nc([C@@H]6CCCN6C(=O)[C@@H](NC(=O)OC(C)(C)C)C(C)C)[nH]c5c4)cc3)cc2[nH]1 [Compound 189] | 5 to 5000 |  |
| COC(=O)NC(C(=O)N1CCCC1c1nc2cc(-c3ccc(-c4ccc5nc(C6CCCN6C(=O)C(NC(=O)OC)C(C)(C)C)[nH]c5c4)cc3)ccc2[nH]1)C(C)(C)C (stereo not drawn) [Compound 190] | ≤ 5 |  |
| COC(=O)NC(C(=O)N1CCCC1c1nc2cc(-c3ccc(-c4ccc5nc(C6CCCN6C(=O)C(NC(=O)OC)C(C)(C)C)[nH]c5c4)cc3)ccc2[nH]1)C(C)(C)C (stereo not drawn) [Compound 191] |  | ≤ 5 |
| c1cc(-c2ccc3[nH]c([C@@H]4CCCN4CCC4CCOCC4)nc3c2)ccc1-c1ccc2[nH]c(C3CCCN3CCC3CCOCC3)nc2c1 (stereo partly drawn) [Compound 192] | 5 to 5000 |  |
| COC(=O)NC(C(=O)N1CCCC1c1nc2cc(-c3ccc(-c4ccc5nc(C6CCCN6C(=O)C(NC(=O)OC)C(C)(C)C)[nH]c5c4)cc3)ccc2[nH]1)C(C)(C)C (stereo not drawn) [Compound 193] |  | 5 to 5000 |
| [2H]C1([2H])Oc2c(-c3ccc4[nH]c([C@@H]5CCCN5C(=O)[C@@H](NC(=O)OC)C(C)C)nc4c3)ccc(-c3ccc4[nH]c([C@@H]5CCCN5C(=O)[C@@H](NC(=O)OC)C(C)C)nc4c3)c2O1 [Compound 194] | ≤ 5 |  |
| COC(=O)N[C@H](CN1CCC[C@H]1c1nc2cc(-c3ccc(-c4ccc5[nH]c([C@@H]6CCCN6C[C@@H](NC(=O)OC)C(C)C)nc5c4)cc3)ccc2[nH]1)C(C)C [Compound 195] | 5 to 5000 |  |
| COCC(=O)N[C@H](C(=O)N1CCC[C@H]1c1nc2ccc(-c3ccc(-c4ccc5nc([C@@H]6CCCN6C(=O)[C@@H](NC(=O)COC)C(C)C)[nH]c5c4)cc3)cc2[nH]1)C(C)C [Compound 196] | 5 to 5000 |  |
| CC(C)[C@H](N)C(=O)N1CCC[C@H]1c1nc2ccc(-c3ccc(-c4ccc5nc([C@@H]6CCCN6C(=O)[C@@H](N)C(C)C)[nH]c5c4)cc3)cc2[nH]1 [Compound 197] | 5 to 5000 |  |
| COC(=O)N[C@H](C(=O)N1CCC[C@H]1c1nc2cc(-c3ccc(-c4ccc5nc([C@@H]6CCCN6C(=O)[C@@H](NC(=O)OC)C(C)C)[nH]c5c4)cc3C(=O)O)ccc2[nH]1)C(C)C [Compound 198] | ≤ 5 |  |
| COC(=O)N[C@H](C(=O)N1CCC[C@H]1c1nc2cc(-c3cc4sc(-c5ccc6nc([C@@H]7CCCN7C(=O)[C@@H](NC(=O)OC)[C@@H](C)OC)[nH]c6c5)cc4s3)ccc2[nH]1)[C@@H](C)OC [Compound 199] | ≤ 5 |  |
| COC(=O)N[C@H](C(=O)N1CCC[C@H]1c1nc2ccc(-c3cnc(-c4ccc5nc([C@@H]6CCCN6C(=O)[C@@H](NC(=O)OC)C(C)C)[nH]c5c4)n3C)cc2[nH]1)C(C)C [Compound 200] | 5 to 5000 |  |

| SMILES | EC50 (Hepatitis C virus, Huh-7, 96 h) [nM] | EC50 [nM] |
| --- | --- | --- |
| COC(=O)NC(C(=O)N1CCC[C@H]1c1nc2ccc(-c3cnc(-c4cnc(-c5ccc6nc([C@@H]7CCCN7C(=O)[C@@H](NC(=O)OC)C(C)C)[nH]c6c5)n4C)n3C)cc2[nH]1)C(C)C (stereo partly drawn) [Compound 201] | ≤ 5 |  |
| COC(=O)N[C@H](C(=O)N1CCC[C@H]1c1nc2cc(-c3c[nH]c(-c4ccc5nc([C@@H]6CCCN6C(=O)[C@@H](NC(=O)OC)C(C)C)[nH]c5c4)n3)ccc2[nH]1)C(C)C [Compound 202] | 5 to 5000 |  |
| COC(=O)N[C@@H](Cc1cncn1C)C(=O)N1CCC[C@H]1c1nc2cc(-c3ccc(-c4ccc5[nH]c([C@@H]6CCCN6C(=O)[C@@H](NC(=O)OC)C(C)C)nc5c4)cc3)ccc2[nH]1 [Compound 203] | ≤ 5 |  |
| COC(=O)N[C@H](C(=O)N1CCC[C@H]1c1nc2cc(C#Cc3ccc4[nH]c([C@@H]5CCCN5C(=O)[C@@H](NC(=O)OC)[C@@H](C)OC)nc4c3)ccc2[nH]1)[C@@H](C)OC [Compound 206] | ≤ 5 |  |
| COC(=O)N[C@H](C(=O)N1CCC[C@H]1c1nc2cc(-c3ccc(-c4ccc5[nH]c([C@@H]6CCCN6C(=O)[C@@H](NC(=O)OC)[C@@H](C)OC)nc5c4)c(C)c3)ccc2[nH]1)[C@@H](C)OC [Compound 207] | ≤ 5 |  |
| COC(=O)N[C@H](C(=O)N1CCC[C@H]1c1nc2cc(-c3ccc(-c4ccc5[nH]c([C@@H]6CCCN6C(=O)[C@@H](NC(=O)OC)[C@@H](C)OC)nc5c4)cc3)ccc2[nH]1)C(C)C [Compound 208] | ≤ 5 |  |
| CC(C)[C@H](O)C(=O)N1CCC[C@H]1c1nc2cc(-c3ccc(-c4ccc5nc([C@@H]6CCCN6C(=O)[C@@H](O)C(C)C)[nH]c5c4)c4c3OCO4)ccc2[nH]1 [Compound 209] | 5 to 5000 |  |
| O=C(OCc1ccccc1)N1CCC[C@H]1c1nc2ccc(N3CCN(c4ccc5nc([C@@H]6CCCN6C(=O)OCc6ccccc6)[nH]c5c4)CC3)cc2[nH]1 [Compound 210] | 5 to 5000 |  |
| COC(=O)NC(C(=O)N1CCC[C@H]1c1nc2ccc(-c3ccc(-c4ccc5nc([C@@H]6CCCN6C(=O)[C@@H](NC(=O)OC)C(C)C)[nH]c5c4)cc3)cc2[nH]1)C(C)(C)C (stereo partly drawn) [Compound 211] | ≤ 5 |  |
| COC(=O)NC(C(=O)N1CCC[C@H]1c1nc2ccc(-c3ccc(-c4ccc5nc([C@@H]6CCCN6C(=O)[C@@H](NC(=O)OC)C(C)C)[nH]c5c4)cc3)cc2[nH]1)C(C)(C)C (stereo partly drawn) [Compound 212] |  | ≤ 5 |
| CCc1cc(-c2ccc3[nH]c([C@@H]4CCCN4C(=O)[C@@H](NC(=O)OC)C(C)C)nc3c2)ccc1-c1ccc2[nH]c([C@@H]3CCCN3C(=O)[C@@H](NC(=O)OC)C(C)C)nc2c1 [Compound 213] | ≤ 5 |  |
| COC(=O)N[C@H](C(=O)N1CCC[C@H]1c1nc2cc(-c3nc(C)c(-c4ccc5[nH]c([C@@H]6CCCN6C(=O)[C@@H](NC(=O)OC)C(C)C)nc5c4)s3)ccc2[nH]1)C(C)C [Compound 214] | ≤ 5 |  |
| CC[C@@H](C(=O)N1CCC[C@H]1c1nc2cc(-c3ccc(-c4ccc5nc([C@@H]6CCCN6C(=O)[C@H](CC)N(C)C(=O)OC)[nH]c5c4)c4c3OCO4)ccc2[nH]1)N(C)C(=O)OC [Compound 215] | ≤ 5 |  |
| COC(=O)N[C@H](C(=O)N1CCC[C@H]1c1nc2cc(-c3ccc(-c4ccc5nc([C@@H]6CCCN6C(=O)CCCC[C@@H]6SC[C@@H]7NC(=O)N[C@@H]76)[nH]c5c4)cc3)ccc2[nH]1)C(C)C [Compound 216] | ≤ 5 |  |
| COC(=O)N[C@H](C(=O)N1CCCC1c1nc2cc(-c3ccc(-c4ccc(-c5ccc6[nH]c(C7CCCN7C(=O)[C@@H](NC(=O)OC)C(C)C)nc6c5)s4)s3)ccc2[nH]1)C(C)C (stereo partly drawn) [Compound 217] | ≤ 5 |  |
| COCc1cc(-c2ccc3[nH]c([C@@H]4CCCN4C(=O)[C@@H](NC(=O)OC)C(C)C)nc3c2)c(COC)cc1-c1ccc2[nH]c([C@@H]3CCCN3C(=O)[C@@H](NC(=O)OC)C(C)C)nc2c1 [Compound 218] | ≤ 5 |  |
| COC(=O)N[C@H](C(=O)N1CCC[C@H]1c1nc2cc(-c3ccc(-c4ccc5nc([C@@H]6CCCN6C(=O)[C@@H](NC(=O)OC)C(C)(C)O)[nH]c5c4)c4c3OCO4)ccc2[nH]1)C(C)(C)O [Compound 219] | ≤ 5 |  |
| COC(=O)N[C@H](C(=O)N1CCC[C@H]1c1nc2cc(-c3ccc(-c4ccc5nc([C@@H]6CCCN6C(=O)[C@@H](NC(=O)OC)C(C)C)[nH]c5c4)cc3CF)ccc2[nH]1)C(C)C [Compound 220] | ≤ 5 |  |
| COC(=O)N[C@H](C(=O)N1CCC[C@H]1c1nc2cc(-c3ccc(-c4ccc5[nH]c([C@@H]6CCCN6C(=O)[C@@H](NC(=O)OC)C(C)C)nc5c4)c4c3OC(F)(F)O4)ccc2[nH]1)C(C)C [Compound 221] | ≤ 5 |  |
| COC(=O)N[C@H](C(=O)N1C[C@@H](OC)C[C@H]1c1nc2cc(-c3ccc(-c4ccc5[nH]c([C@@H]6C[C@H](OC)CN6C(=O)[C@@H](NC(=O)OC)C(C)C)nc5c4)cc3)ccc2[nH]1)C(C)C [Compound 222] | ≤ 5 |  |
| Cn1c([C@@H]2CCCN2C(=O)OC(C)(C)C)nc2cc(-c3ccc(-c4ccc5c(c4)nc([C@@H]4CCCN4C(=O)OC(C)(C)C)n5C)cc3)ccc21 [Compound 225] | > 5000 |  |
